Calls of active or inactive are those of the source.
What was measured:
Cell membrane [1] = assay: Induction of inner membrane permeabilization in Staphylococcus aureus CGMCC1.8721 assessed as increase in fluorescence intensity by PI staining based fluorescence analysis; assay type: subcellular
Staphylococcus aureus [2] = assay: Bactericidal activity against methicillin-resistant Staphylococcus aureus ATCC 33591 assessed as reduction in bacterial growth; assay type: functional
Staphylococcus aureus [3] = assay: Bactericidal activity against Staphylococcus aureus CGMCC1.8721 assessed as reduction in bacterial growth; assay type: functional
Staphylococcus aureus [4] = assay: Antibacterial activity against methicillin-resistant Staphylococcus aureus ATCC 33591 assessed as reduction in bacterial growth in presence of K+; assay type: functional
Staphylococcus aureus [5] = assay: Antibacterial activity against methicillin-resistant Staphylococcus aureus ATCC 33591 assessed as reduction in bacterial growth in presence of Na+; assay type: functional
Staphylococcus aureus [6] = assay: Bactericidal activity against methicillin-resistant Staphylococcus aureus ATCC 43300 assessed as reduction in bacterial growth; assay type: functional
Staphylococcus aureus [7] = assay: Antibacterial activity against Staphylococcus aureus CGMCC1.8721 assessed as reduction in bacterial growth in presence of Ca2+; assay type: functional
Staphylococcus aureus [8] = assay: Antibacterial activity against methicillin-resistant Staphylococcus aureus ATCC 33591 assessed as reduction in bacterial growth in presence of Fe3+; assay type: functional
Staphylococcus aureus [9] = assay: Antibacterial activity against Staphylococcus aureus CGMCC1.8721 assessed as reduction in bacterial growth in presence of K+; assay type: functional
HepG2 = assay: Cytotoxicity against human HepG2 cells assessed as cell viability upto 40 uM relative to control; assay type: functional; details: up to 40 µM
Staphylococcus aureus [10] = assay: Antibacterial activity against methicillin-resistant Staphylococcus aureus CGMCC 1.12409 assessed as reduction in bacterial growth in presence of Fe2+; assay type: functional
Staphylococcus aureus [11] = assay: Antibiofilm activity against Staphylococcus aureus CGMCC1.8721 assessed as inhibition of biofilm formation at 1 times MIC; assay type: functional
Staphylococcus aureus [12] = assay: Antibacterial activity against Staphylococcus aureus CGMCC1.8721 assessed as reduction in bacterial growth in presence of Zn2+; assay type: functional
Staphylococcus aureus [13] = assay: Antibacterial activity against methicillin-resistant Staphylococcus aureus CGMCC 1.12409 assessed as reduction in bacterial growth in presence of Fe3+; assay type: functional
Staphylococcus aureus [14] = assay: Antibacterial activity against Staphylococcus aureus CGMCC1.8721 assessed as reduction in bacterial growth at 4 to 8 times MIC measured after 24 hrs by time kill assay; assay type: functional, organism-based
Staphylococcus aureus [15] = assay: Antibacterial activity against Methicillin-resistant Staphylococcus aureus CGMCC1.8721 infected in mouse skin infection model assessed as reduction in bacterial clones at 5 to 10 mg/kg, sc; assay type: functional, organism-based; details: dose 5-10 mg/kg
Staphylococcus aureus [16] = assay: Antibacterial activity against methicillin-resistant Staphylococcus aureus ATCC 33591 assessed as reduction in bacterial growth in presence of Mg2+; assay type: functional
Staphylococcus aureus [17] = assay: Antibiofilm activity against Staphylococcus aureus CGMCC1.8721 assessed as inhibition of biofilm formation at 8 times MIC; assay type: functional
Cell membrane [18] = assay: Disruption of cell membrane integrity in Staphylococcus aureus CGMCC1.8721 assessed as increase in red fluorescence at 4 times MIC by SYTO 9/PI staining based confocal microscopic analysis; assay type: subcellular
Staphylococcus aureus [19] = assay: Antibacterial activity against methicillin-resistant Staphylococcus aureus ATCC 43300 assessed as reduction in bacterial growth; assay type: functional
Staphylococcus aureus [20] = assay: Antibiofilm activity against Staphylococcus aureus CGMCC1.8721 assessed as biofilm eradication; assay type: functional, organism-based
Staphylococcus aureus [21] = assay: Antibacterial activity against methicillin-resistant Staphylococcus aureus CGMCC 1.12409 assessed as reduction in bacterial growth in presence of Na+; assay type: functional
Staphylococcus aureus [22] = assay: Antibacterial activity against Staphylococcus aureus CGMCC1.8721 assessed as reduction in bacterial growth in presence of Fe2+; assay type: functional
Staphylococcus aureus [23] = assay: Antibacterial activity against Staphylococcus aureus CGMCC1.8721 assessed as reduction in bacterial growth in presence of peptidoglycan; assay type: functional, organism-based
Staphylococcus aureus [24] = assay: Antibacterial activity against methicillin-resistant Staphylococcus aureus ATCC 43300 assessed as reduction in bacterial growth in presence of Na+; assay type: functional
Staphylococcus aureus [25] = assay: Antibacterial activity against methicillin-resistant Staphylococcus aureus CGMCC 1.12409 assessed as reduction in bacterial growth in presence of Ca2+; assay type: functional
Staphylococcus aureus [26] = assay: Antibacterial activity against methicillin-resistant Staphylococcus aureus ATCC 33591 assessed as reduction in bacterial growth in presence of Fe2+; assay type: functional
A549 [27] = assay: Cytotoxicity against human A549 cells upto 20 uM; assay type: functional, cell-based
Staphylococcus aureus [28] = assay: Antibacterial activity against Methicillin-resistant Staphylococcus aureus CGMCC1.8721 infected in mouse skin infection model assessed as reduction in bacterial load at 5 mg/kg, sc; assay type: functional; parameters: scale not given: the % may be the effect or the level left
A549 [29] = assay: Cytotoxicity against human A549 cells assessed as cell viability upto 40 uM relative to control; assay type: functional; details: up to 40 µM
Staphylococcus aureus [30] = assay: Antibacterial activity against Staphylococcus aureus CGMCC1.8721 assessed as reduction in bacterial growth in presence of Na+; assay type: functional
Cell membrane [31] = assay: Disruption of cell membrane integrity in Staphylococcus aureus CGMCC1.8721 assessed as appearance of ruptured cell surface at 1 to 4 times MIC by scanning electron microscopic analysis; assay type: subcellular
Staphylococcus aureus [32] = assay: Antibacterial activity against Staphylococcus aureus CGMCC1.8721 assessed as reduction in bacterial growth in presence of Fe3+; assay type: functional
Staphylococcus aureus [33] = assay: Antibacterial activity against methicillin-resistant Staphylococcus aureus CGMCC 1.12409 assessed as reduction in bacterial growth in presence of K+; assay type: functional
HEK-293T = assay: Cytotoxicity against HEK293T cells upto 20 uM; assay type: toxicity, cell-based; details: human
Staphylococcus aureus [34] = assay: Antibacterial activity against methicillin-resistant Staphylococcus aureus ATCC 43300 assessed as reduction in bacterial growth in presence of Fe3+; assay type: functional
Staphylococcus aureus [35] = assay: Antibacterial activity against Staphylococcus aureus CGMCC1.8721 assessed as reduction in bacterial growth in presence of phosphatidylcholine; assay type: functional, organism-based
Staphylococcus aureus [36] = assay: Antibacterial activity against Staphylococcus aureus CGMCC1.8721 assessed as reduction in bacterial growth in presence of Mg2+; assay type: functional
Staphylococcus aureus [37] = assay: Antibacterial activity against methicillin-resistant Staphylococcus aureus ATCC 33591 assessed as reduction in bacterial growth in presence of Zn2+; assay type: functional
Staphylococcus aureus [38] = assay: Bactericidal activity against methicillin-resistant Staphylococcus aureus CGMCC 1.12409 assessed as reduction in bacterial growth; assay type: functional
Staphylococcus aureus [39] = assay: Antibacterial activity against methicillin-resistant Staphylococcus aureus ATCC 33591 assessed as reduction in bacterial growth; assay type: functional
Staphylococcus aureus [40] = assay: Antibacterial activity against methicillin-resistant Staphylococcus aureus CGMCC 1.12409 assessed as reduction in bacterial growth in presence of Zn2+; assay type: functional
Staphylococcus aureus [41] = assay: Antibacterial activity against Staphylococcus aureus CGMCC1.8721 assessed as reduction in bacterial growth in presence of phosphatidylethanolamine; assay type: functional, organism-based
Staphylococcus aureus [42] = assay: Drug resistance, ratio of MIC for Staphylococcus aureus CGMCC1.8721 after 30 days exposure to MIC for Staphylococcus aureus CGMCC1.8721 during first exposure; assay type: functional
Staphylococcus aureus [43] = assay: Antibacterial activity against Staphylococcus aureus CGMCC1.8721 assessed as reduction in metabolic activity at 4 times MIC by Alamar Blue assay; assay type: functional; parameters: scale not given: the % may be the effect or the level left
Staphylococcus aureus [44] = assay: Antibacterial activity against methicillin-resistant Staphylococcus aureus CGMCC 1.12409 assessed as reduction in bacterial growth; assay type: functional

CCNCc1ccc2[nH]cc(C[C@@H](C)[C@H]3CC[C@H]4[C@@H]5CC[C@@H]6C[C@H](O)CC[C@]6(C)[C@H]5CC[C@]34C)c2c1
active: Activity (Cell membrane [1]) Dose-dependent-effect | Activity (Staphylococcus aureus [14]) | AC30 (Staphylococcus aureus [15]) | Activity (Cell membrane [18]) | Activity (Staphylococcus aureus [20]) | Activity (A549 [27]) | Activity (Cell membrane [31])
67%: Activity (Staphylococcus aureus [28])
Non-toxic: Activity (HEK-293T)
64.1%: inhibition (INH) (Staphylococcus aureus [11])
1 µg/mL: MIC (Staphylococcus aureus [7]) | MIC (Staphylococcus aureus [9]) | MIC (Staphylococcus aureus [12]) | MIC (Staphylococcus aureus [19]) | MIC (Staphylococcus aureus [22]) | MIC (Staphylococcus aureus [24]) | MIC (Staphylococcus aureus [30]) | MIC (Staphylococcus aureus [32]) | MIC (Staphylococcus aureus [34]) | MIC (Staphylococcus aureus [36])
inactive: Activity (Staphylococcus aureus [23]) | Activity (Staphylococcus aureus [35]) | Activity (Staphylococcus aureus [41])
2 µg/mL: MBC (Staphylococcus aureus [3]) | MIC (Staphylococcus aureus [4]) | MIC (Staphylococcus aureus [5]) | MBC (Staphylococcus aureus [6]) | MIC (Staphylococcus aureus [8]) | MIC (Staphylococcus aureus [10]) | MIC (Staphylococcus aureus [13]) | MIC (Staphylococcus aureus [16]) | MIC (Staphylococcus aureus [21]) | MIC (Staphylococcus aureus [25]) | MIC (Staphylococcus aureus [26]) | MIC (Staphylococcus aureus [33]) | MIC (Staphylococcus aureus [37]) | MIC (Staphylococcus aureus [39]) | MIC (Staphylococcus aureus [40]) | MIC (Staphylococcus aureus [44])
92.4%: inhibition (INH) (Staphylococcus aureus [17])
75%: Activity (Staphylococcus aureus [43])
4 µg/mL: MBC (Staphylococcus aureus [2]) | MBC (Staphylococcus aureus [38])
>70%: Activity (HepG2) | Activity (A549 [29])
64: Ratio (Staphylococcus aureus [42])
